Laboratory results reported in patent publication US11272706B2, “Anti-resistance method” (UPL LIMITED, priority 2017, dated 2022).
≈ marks a conversion by molar mass, not a printed value. Read-outs that look alike come from different tables or passages of the source.

Key:
[1] = tested on: Drechsiera tritici-repentis; experiment: 50% inhibition of spore germination (CI50), five isolates, strobilurin fungicides; format: cell-based; details: for Reduction factor of the sensitivity, isolate 01/QTZ: CI50 of sensitivity reference 0.75 mg/L; for Reduction factor of the sensitivity, Average / Reduction factor of the sensitivity, isolate 02/ONX / Reduction factor of the sensitivity, isolate 03/HZT / Reduction factor of the sensitivity, isolate 04/GUA / Reduction factor of the sensitivity, isolate 05/CD: reference 0.75 mg/L
Procedure: However, the highest reduction of sensitivity of the Dtr to fungicides and what better explains the control failure claimed by producers is the CI50 obtained for QoIs fungicides (see Table 4).
Lowercase compare average in the column and capital letters in the line. Average of two experiments.
Taking as Cl50 standard of sensitivity, 0.75 mg/L (Table 4) obtained for pyraclostrobin, it is calculated the reduction factor of the sensitivity of the Dtr to QoIs fungicides (see Table 5).
Cl50 of sensitivity reference of 0.75 mg/L.
When the SRF is close to 1.0 there is no reduction of sensitivity. However, if >1 with different magnitude, it indicates reduced sensitivity of fungi to fungicides. In this case SRF ranged from 1.04 to >53 (see Table 5).

soybean rust [2] = tested on: soybean rust; design: Control of soybean rust, crop 2005/06 / Control of soybean rust, crop 2012/13: concentration or dose not given beside the values; details: cited from earlier work; for Reduction (%) of control: 2005/06 versus 2012/13 crop; for Control of soybean rust, crop 2005/06 / Control of soybean rust, crop 2012/13: applied preventively; for Control of soybean rust, crop 2005/06: 2005/06 crop; for Control of soybean rust, crop 2012/13: 2012/13 crop
Drechsiera siccans = experiment: 50% inhibition of mycelium growth (IC50), five isolates, DMI fungicides; format: cell-based
Procedure: In the 2003 wheat crop for the first time, there was complaint of leaf spot control failure after continuous use of fungicides DMI+QoI, for 20 years. Until that time there were few reports of the sensitivity of the fungus that is causal agent of yellow spot to fungicides (Stoke, 2006; Tonin, 2009; Beard et al, 2009; Patel et al, 2012). The reference concentrations of sensitivity of Dtr to fungicides found in the literature were 0.17 mg/L in average for the epoxiconazole, propiconazole and tebuconazole. […] Comparing these values with the sensitivity of isolates of Brazil proves the reduced sensitivity occurring here (see Table 3).
Average of two experiments.

[3] = tested on: Dtr (Drechsiera tritici-repentis); details: literature value, cited from earlier work
soybean rust [4] = experiment: Cooperative tests of fungicides (Embrapa Soybean): soybean rust control over crops, FIGS. 1-6; format: in vivo, Phakopsora pachyrhizi; details: from regression equation over crops; starting crop differs per fungicide
From the text: An example that reinforces the reported fact is the gradual reduction of tebuconazole control over the crops using it covering the period beginning in 2004/05 to 2013/14 (as FIG. 1).
The results of cooperative tests of fungicides, coordinated by Embrapa Soybean, Londrina, can bring the answer to these questions. The following graphs of FIGS. 2, 3, 4 and 5 show the reduction of rust control by fungicide mixtures traditionally used in soybeans over the past crops.
FIG. 1. Reduced soybean rust control by tebuconazole over […]. (Source: Cooperative tests of fungicides).
FIG. 2. Control Reduction of soybean rust by cyproconazole+azoxystrobin mixture over six crops. (Source: Cooperative tests of fungicides).
FIG. 3. Control Reduction of soybean rust by cyproconazole+picoxystrobin mixture over six crops. (Source: Cooperative tests of fungicides).
FIG. 4. Reduction control of soybean rust by epoxiconazole+pyraclostrobin mixture over six crops. (Source: Cooperative tests of fungicides).
FIG. 5. Average reduction of soybean rust control by mixtures of cyproconazole+azoxystrobin, cyproconazole+picoxystrobin and epoxiconazole+pyraclostrobin over six crops. (Source: Cooperative tests of fungicides).
FIG. 6. Control Reduction of soybean rust for azoxystrobin over six crops. (Source: Cooperative tests of fungicides).

soybean rust [5] = details: 2013/14 crop; cited from earlier work
soybean rust [6] = details: crop 2010/11, cited from earlier work; for Control (%): evaluated by AUDPC; for Severity (%): untreated control 74.0
wheat leaf spots = experiment: Control of wheat leaf spots by DMI + QoI mixtures with or without mancozeb; format: in vivo, Drechsiera tritici-repentis; details: various locations in Brazil
From the text: (§1) However, its greatest contribution was proven when added to commercial blends bringing control to values of up to 80%, similar efficiency of mixtures “triazole+strobilurin” at the beginning of its use.
With the addition of mancozeb, by using the method anti-resistance described in the present invention, the control has been quite improved (33.3% also as shown in Table 8).

soybean rust [7] = experiment: Field experiments at various locations in Brazil: mancozeb alone or added to commercial mixtures against soybean rust; format: in vivo, Phakopsora pachyrhizi; details: mancozeb applied alone
From the text: as §1
Therefore, the present invention used the same strategy as the solution to recover the original control levels (>80%) and make the useful life of the fungicides longer in controlling the target disease of the invention. This is because, mancozeb, being a multi-site protective fungicide and presenting a broad spectrum of action, will also contribute to the control of other diseases in soybean and also in wheat.
A study was conducted to determine the contribution of the mancozeb addition to mixtures of “strobilurin+triazoles.” The experiments were conducted in the field, in nine different locations, where it was determined the fungi toxicity of mancozeb to soybean rust.
Two doses were tested (1.5 and 2.0 kg/ha) with various numbers of mancozeb applications. The effect of mancozeb (1.5 kg/ha), incorporated into commercial mixtures was also tested.
The experiments were conducted with soybean cultivar Monsoy 9144 RR. Mancozeb formulation 750 WDG (water dispersible granules) was used, commercially available, for application of mancozeb according to Tables 6 and 7.

[8] = spore germination, average of five isolates, read-out: CI50 Average
[9] = spore germination, isolate 01/QTZ, average of two experiments, read-out: CI50 isolate 01/QTZ
[10] = spore germination, isolate 02/ONX, read-out: CI50 isolate 02/ONX
[11] = spore germination, isolate 03/HZT, read-out: CI50 isolate 03/HZT
[12] = spore germination, isolate 04/GUA, read-out: CI50 isolate 04/GUA
[13] = spore germination, average of five isolates
[14] = spore germination, isolate 01/QTZ, average of two experiments
[15] = spore germination, isolate 02/ONX
[16] = spore germination, isolate 03/HZT
[17] = spore germination, isolate 04/GUA
[18] = average of five isolates, read-out: IC50 Average
[19] = isolate 01/F30, average of two experiments, read-out: IC50 isolate 01/F30
[20] = isolate 02/RZ, read-out: IC50 isolate 02/RZ
[21] = isolate 03/SF, read-out: IC50 isolate 03/SF
[22] = isolate 04/F52, read-out: IC50 isolate 04/F52
[23] = isolate 05/VQ, read-out: IC50 isolate 05/VQ

Compound	Reduction factor of the sensitivity, isolate 01/QTZ ([1]; isolate 01/QTZ)	Reduction factor of the sensitivity, Average ([1]; average of five isolates) [a]	Reduction factor of the sensitivity, isolate 02/ONX ([1]; isolate 02/ONX)	Reduction factor of the sensitivity, isolate 03/HZT ([1]; isolate 03/HZT)	Reduction factor of the sensitivity, isolate 04/GUA ([1]; isolate 04/GUA)	Reduction factor of the sensitivity, isolate 05/CD [1]	IC50 (Drechsiera siccans; [18]) [µg/mL]	IC50 (Drechsiera siccans; [19]) [µg/mL]	IC50 (Drechsiera siccans; [20]) [µg/mL]	IC50 (Drechsiera siccans; [21]) [µg/mL]	IC50 (Drechsiera siccans; [22]) [µg/mL]	IC50 (Drechsiera siccans; [23]) [µg/mL]	also measured
CON=C(C(=O)OC)c1ccccc1CON=C(C)c1cccc(C(F)(F)F)c1 [Trifloxystrobin]	A > 53 a	>53	A > 53 a	A > 53 a	A > 53 a	A > 53 a	–	–	–	–	–	–	IC50 [1, 8]: > 40 µg/mL; IC50 [1, 9]: > 40 µg/mL; IC50 [1, 10]: > 40 µg/mL; IC50 [1, 11]: > 40 µg/mL; IC50 [1, 12]: > 40 µg/mL
CO/C=C(/C(=O)OC)c1ccccc1COc1cccc(C(F)(F)F)n1 [Picoxystrobin]	A > 53a	>53	A > 53 a	A > 53 a	A > 53 a	A > 53 a	–	–	–	–	–	–	CI50 Average [1, 13]: >40 a mg/L; CI50 isolate 01/QTZ [1, 14]: A > 40 a mg/L; CI50 isolate 02/ONX [1, 15]: A > 40 a mg/L; CI50 isolate 03/HZT [1, 16]: A > 40 a mg/L; CI50 isolate 04/GUA [1, 17]: A > 40 a mg/L; CI50 isolate 05/CD ([1]; spore germination): A > 40 a mg/L
COC(=O)N(OC)c1ccccc1COc1ccn(-c2ccc(Cl)cc2)n1 [Pyraclostrobin]	D 1.0 b	–	B 1.13 b	C 1.04 b	E 0.77 b	A 1.37 b	–	–	–	–	–	–	IC50 ([1]; read-out: CI50 isolate 05/CD): 1.03 µg/mL (≈ 2.66 µM); IC50 [1, 8]: 0.8 µg/mL (≈ 2.06 µM); IC50 [1, 9]: 0.75 µg/mL (≈ 1.93 µM); IC50 [1, 10]: 0.85 µg/mL (≈ 2.19 µM); IC50 [1, 11]: 0.78 µg/mL (≈ 2.01 µM); IC50 [1, 12]: 0.58 µg/mL (≈ 1.5 µM); IC50 ([1]; taken from Table 4 as sensitivity reference, read-out: CI50 standard of sensitivity): 0.75 µg/mL (≈ 1.93 µM)
Fc1ccc([C@]2(Cn3cncn3)O[C@H]2c2ccccc2Cl)cc1 (racemic) [Epoxiconazole]	–	–	–	–	–	–	0.33 (≈ 1 µM)	0.28 (≈ 0.849 µM)	0.28 (≈ 0.849 µM)	0.4 (≈ 1.21 µM)	0.32 (≈ 0.97 µM)	0.4 (≈ 1.21 µM)	Reduction (%) of control (soybean rust [2]): 50.0%; Control of soybean rust, crop 2005/06 (soybean rust [2]): 80.0%; Control of soybean rust, crop 2012/13 (soybean rust [2]): 40.0%; IC50 (Beard et al) [3]: 0.19 µg/mL (≈ 0.576 µM)
CO/C=C(/C(=O)OC)c1ccccc1Oc1cc(Oc2ccccc2C#N)ncn1 [Azoxystrobin]	A > 53 a	>53	A > 53 a	A > 53 a	A > 53 a	A > 53 a	–	–	–	–	–	–	Control efficiency reduced per year (soybean rust [4]): 13.8 % per year; CI50 Average [1, 13]: A > 40 a ^ mg/L; CI50 isolate 01/QTZ [1, 14]: A > 40 a mg/L; CI50 isolate 02/ONX [1, 15]: A > 40 a mg/L; CI50 isolate 03/HZT [1, 16]: A > 40 a mg/L; CI50 isolate 04/GUA [1, 17]: A > 40 a mg/L; CI50 isolate 05/CD ([1]; spore germination): A > 40 a mg/L; Control of soybean rust in the 2013/14 (last) crop (soybean rust [5]): 16%
CCCC1COC(Cn2cncn2)(c2ccc(Cl)cc2Cl)O1 (centres unmarked) [Propiconazole]	–	–	–	–	–	–	0.34 (≈ 0.993 µM)	0.32 (≈ 0.935 µM)	0.51 (≈ 1.49 µM)	0.3 (≈ 0.877 µM)	0.3 (≈ 0.877 µM)	0.3 (≈ 0.877 µM)	IC50 (Hunger & Brown) [3]: 0.04 µg/mL (≈ 0.117 µM)
CC(C1CC1)C(O)(Cn1cncn1)c1ccc(Cl)cc1 (centres unmarked) [Cyproconazole]	–	–	–	–	–	–	0.37 (≈ 1.27 µM)	0.36 (≈ 1.23 µM)	0.47 (≈ 1.61 µM)	0.32 (≈ 1.1 µM)	0.44 (≈ 1.51 µM)	0.29 (≈ 0.994 µM)	Reduction (%) of control (soybean rust [2]): 45.9%; Control of soybean rust, crop 2005/06 (soybean rust [2]): 96.0%; Control of soybean rust, crop 2012/13 (soybean rust [2]): 52.0%; Control (%) (soybean rust [6]): 38%; Severity (%) (soybean rust [6]): 58.1%
CO/N=C(/C(=O)OC)c1ccccc1COc1ccccc1C [Kresoxim methyl]	A > 53 a	>53	A > 53 a	A > 53 a	A > 53 a	A > 53 a	–	–	–	–	–	–	IC50 [1, 8]: > 40 µg/mL; IC50 [1, 9]: > 40 µg/mL; IC50 [1, 10]: > 40 µg/mL; IC50 [1, 11]: > 40 µg/mL; IC50 [1, 12]: > 40 µg/mL
OC(Cc1ccccc1Cl)(Cn1nc[nH]c1=S)C1(Cl)CC1 (centres unmarked) [Prothioconazole]	–	–	–	–	–	–	0.21 (≈ 0.61 µM)	0.22 (≈ 0.639 µM)	< 0.1	0.26 (≈ 0.755 µM)	0.25 (≈ 0.726 µM)	0.14 (≈ 0.407 µM)	–
CC(C)(C)C(O)(CCc1ccc(Cl)cc1)Cn1cncn1 (centres unmarked) [Tebuconazole]	–	–	–	–	–	–	0.57 (≈ 1.85 µM)	0.66 (≈ 2.14 µM)	0.49 (≈ 1.59 µM)	0.65 (≈ 2.11 µM)	0.61 (≈ 1.98 µM)	0.44 (≈ 1.43 µM)	Reduction (%) of control (soybean rust [2]): 32.8%; Control of soybean rust, crop 2005/06 (soybean rust [2]): 95.0%; Control of soybean rust, crop 2012/13 (soybean rust [2]): 64.0%; Control efficiency reduced per year (soybean rust [4]): 7.2 % per year; IC50 (Beard et al) [3]: 0.25 µg/mL (≈ 0.812 µM); IC50 (Hunger & Brown) [3]: 0.19 µg/mL (≈ 0.617 µM); Control (%) (soybean rust [6]): 42%; Severity (%) (soybean rust [6]): 49.9%
manganese ethylene bis(dithiocarbamate)+Zn [mancozeb]	–	–	–	–	–	–	–	–	–	–	–	–	Control of yellow spot of wheat leaf, applied alone (wheat leaf spots): showed the efficiency; Control of soybean rust, applied alone (soybean rust [7]): showed the efficiency
